From PubChem BioAssay (NCI)
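Tested at 5 concentrations; 48 h exposure; 96-well plates; endpoints linearly interpolated, else capped at highest concentration. Abbreviation: GI50, concentration required for 50% inhibition of growth. TGI: total growth inhibition.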

Key:
Experiment in all cases: growth of human tumour cells (NCI), 48 h
UO-31 renal = tested on: UO-31 renal
HCC-2998 colon = tested on: HCC-2998 colon
DU-145 prostate = tested on: DU-145 prostate
SN12C renal = tested on: SN12C renal
UACC-62 melanoma = tested on: UACC-62 melanoma
HCT-116 colon = tested on: HCT-116 colon
NCI-H226 lung = tested on: NCI-H226 lung
NCI-H522 lung = tested on: NCI-H522 lung
SK-MEL-2 melanoma = tested on: SK-MEL-2 melanoma
HL-60(TB) leukemia = tested on: HL-60(TB) leukemia
EKVX NSCLC = tested on: EKVX NSCLC
RXF 393 renal = tested on: RXF 393 renal
SW-620 colon = tested on: SW-620 colon
HOP-62 NSCLC = tested on: HOP-62 NSCLC
SK-MEL-28 melanoma = tested on: SK-MEL-28 melanoma
OVCAR-3 ovarian = tested on: OVCAR-3 ovarian
CAKI-1 renal = tested on: CAKI-1 renal
A498 renal = tested on: A498 renal
OVCAR-4 ovarian = tested on: OVCAR-4 ovarian
U251 CNS = tested on: U251 CNS
RPMI-8226 leukemia = tested on: RPMI-8226 leukemia
MALME-3M melanoma = tested on: MALME-3M melanoma
T-47D breast = tested on: T-47D breast
M14 melanoma = tested on: M14 melanoma
A549 NSCLC = tested on: A549 NSCLC
NCI-H460 lung = tested on: NCI-H460 lung
SNB-75 CNS = tested on: SNB-75 CNS
KM12 colon = tested on: KM12 colon
NCI/ADR-RES ovarian = tested on: NCI/ADR-RES ovarian
ACHN renal = tested on: ACHN renal
K-562 leukemia = tested on: K-562 leukemia
COLO 205 colon = tested on: COLO 205 colon
SK-OV-3 ovarian = tested on: SK-OV-3 ovarian
SF-295 CNS = tested on: SF-295 CNS
NCI-H23 lung = tested on: NCI-H23 lung
MDA-MB-231 breast = tested on: MDA-MB-231 breast
SR leukemia = tested on: SR leukemia
TK-10 renal = tested on: TK-10 renal
LOX IMVI melanoma = tested on: LOX IMVI melanoma
MCF7 breast = tested on: MCF7 breast
HCT-15 colon = tested on: HCT-15 colon
SNB-19 CNS = tested on: SNB-19 CNS
MDA-MB-435 = tested on: MDA-MB-435
MOLT-4 leukemia = tested on: MOLT-4 leukemia
UACC-257 melanoma = tested on: UACC-257 melanoma
PC-3 prostate = tested on: PC-3 prostate
SF-268 CNS = tested on: SF-268 CNS
SK-MEL-5 melanoma = tested on: SK-MEL-5 melanoma
BT-549 breast = tested on: BT-549 breast
SF-539 CNS = tested on: SF-539 CNS
IGROV1 ovarian = tested on: IGROV1 ovarian
OVCAR-5 ovarian = tested on: OVCAR-5 ovarian
OVCAR-8 ovarian = tested on: OVCAR-8 ovarian
CCRF-CEM leukemia = tested on: CCRF-CEM leukemia
786-0 renal = tested on: 786-0 renal
HT29 colon = tested on: HT29 colon
HOP-92 NSCLC = tested on: HOP-92 NSCLC
HS 578T breast = tested on: HS 578T breast

SMILES: COc1ccc(/C=C/c2c(C(=O)/C=C/c3ccc(Cl)cc3)c(C)nc3ccccc23)cc1
- GI50 (UO-31 renal): 1.21 µM
- TGI (UO-31 renal): 2.47 µM
- GI50 (HCC-2998 colon): 1.57 µM
- TGI (HCC-2998 colon): 3.06 µM
- GI50 (DU-145 prostate): 1.69 µM
- TGI (DU-145 prostate): 3.25 µM
- GI50 (SN12C renal): 2.41 µM
- TGI (SN12C renal): 6.97 µM
- GI50 (UACC-62 melanoma): 1.59 µM
- TGI (UACC-62 melanoma): 3.28 µM
- GI50 (HCT-116 colon): 0.799 µM
- TGI (HCT-116 colon): 2.19 µM
- GI50 (NCI-H226 lung): 1.8 µM
- TGI (NCI-H226 lung): 3.72 µM
- GI50 (NCI-H522 lung): 1.59 µM
- TGI (NCI-H522 lung): 4.62 µM
- GI50 (SK-MEL-2 melanoma): 1.83 µM
- TGI (SK-MEL-2 melanoma): 4.06 µM
- GI50 (HL-60(TB) leukemia): 2.15 µM
- TGI (HL-60(TB) leukemia): 5.62 µM
- GI50 (EKVX NSCLC): 1.55 µM
- TGI (EKVX NSCLC): 3.49 µM
- GI50 (RXF 393 renal): 1.78 µM
- TGI (RXF 393 renal): 3.34 µM
- GI50 (SW-620 colon): 1.85 µM
- TGI (SW-620 colon): 6.02 µM
- GI50 (HOP-62 NSCLC): 2.12 µM
- TGI (HOP-62 NSCLC): 4.83 µM
- GI50 (SK-MEL-28 melanoma): 1.81 µM
- TGI (SK-MEL-28 melanoma): 3.42 µM
- GI50 (OVCAR-3 ovarian): 1.62 µM
- TGI (OVCAR-3 ovarian): 3.19 µM
- GI50 (CAKI-1 renal): 1.14 µM
- TGI (CAKI-1 renal): 2.62 µM
- GI50 (A498 renal): 1.89 µM
- TGI (A498 renal): 3.39 µM
- GI50 (OVCAR-4 ovarian): 1.75 µM
- TGI (OVCAR-4 ovarian): 3.97 µM
- GI50 (U251 CNS): 1.75 µM
- TGI (U251 CNS): 3.55 µM
- GI50 (RPMI-8226 leukemia): 1.91 µM
- TGI (RPMI-8226 leukemia): 6.77 µM
- GI50 (MALME-3M melanoma): 1.69 µM
- TGI (MALME-3M melanoma): 3.21 µM
- GI50 (T-47D breast): 1.7 µM
- TGI (T-47D breast): 5.72 µM
- GI50 (M14 melanoma): 1.83 µM
- TGI (M14 melanoma): 4.15 µM
- GI50 (A549 NSCLC): 2.69 µM
- TGI (A549 NSCLC): 9.6 µM
- GI50 (NCI-H460 lung): 2.13 µM
- TGI (NCI-H460 lung): 5.61 µM
- GI50 (SNB-75 CNS): 1.5 µM
- TGI (SNB-75 CNS): 3.14 µM
- GI50 (KM12 colon): 1.73 µM
- TGI (KM12 colon): 3.56 µM
- GI50 (NCI/ADR-RES ovarian): 2.11 µM
- TGI (NCI/ADR-RES ovarian): 5.61 µM
- GI50 (ACHN renal): 1.55 µM
- TGI (ACHN renal): 2.97 µM
- GI50 (K-562 leukemia): 2.19 µM
- TGI (K-562 leukemia): > 100 µM
- GI50 (COLO 205 colon): 2.13 µM
- TGI (COLO 205 colon): 5.29 µM
- GI50 (SK-OV-3 ovarian): 2.82 µM
- TGI (SK-OV-3 ovarian): 11.4 µM
- GI50 (SF-295 CNS): 1.72 µM
- TGI (SF-295 CNS): 3.61 µM
- GI50 (NCI-H23 lung): 1.39 µM
- TGI (NCI-H23 lung): 3.35 µM
- GI50 (MDA-MB-231 breast): 2.38 µM
- TGI (MDA-MB-231 breast): 7.82 µM
- GI50 (SR leukemia): 1.37 µM
- TGI (SR leukemia): > 100 µM
- GI50 (TK-10 renal): 2.87 µM
- TGI (TK-10 renal): 4.95 µM
- GI50 (LOX IMVI melanoma): 1.51 µM
- TGI (LOX IMVI melanoma): 2.9 µM
- GI50 (MCF7 breast): 1.29 µM
- TGI (MCF7 breast): 4.11 µM
- GI50 (HCT-15 colon): 1.29 µM
- TGI (HCT-15 colon): 4.13 µM
- GI50 (SNB-19 CNS): 1.74 µM
- TGI (SNB-19 CNS): 3.29 µM
- GI50 (MDA-MB-435): 2.12 µM
- TGI (MDA-MB-435): 4.67 µM
- GI50 (MOLT-4 leukemia): 2 µM
- TGI (MOLT-4 leukemia): > 100 µM
- GI50 (UACC-257 melanoma): 2.09 µM
- TGI (UACC-257 melanoma): 4.55 µM
- GI50 (PC-3 prostate): 1.96 µM
- TGI (PC-3 prostate): 5.89 µM
- GI50 (SF-268 CNS): 1.98 µM
- TGI (SF-268 CNS): 4.56 µM
- GI50 (SK-MEL-5 melanoma): 1.72 µM
- TGI (SK-MEL-5 melanoma): 3.11 µM
- GI50 (BT-549 breast): 1.83 µM
- TGI (BT-549 breast): 3.8 µM
- GI50 (SF-539 CNS): 1.78 µM
- TGI (SF-539 CNS): 3.27 µM
- GI50 (IGROV1 ovarian): 0.663 µM
- TGI (IGROV1 ovarian): 2.54 µM
- GI50 (OVCAR-5 ovarian): 2.08 µM
- TGI (OVCAR-5 ovarian): 4.98 µM
- GI50 (OVCAR-8 ovarian): 2.43 µM
- TGI (OVCAR-8 ovarian): 9.13 µM
- GI50 (CCRF-CEM leukemia): 2.03 µM
- TGI (CCRF-CEM leukemia): > 100 µM
- GI50 (786-0 renal): 1.82 µM
- TGI (786-0 renal): 3.4 µM
- GI50 (HT29 colon): 1.61 µM
- TGI (HT29 colon): 6.05 µM

SMILES: NC(N)=N/N=C/c1c(-c2ccc([N+](=O)[O-])cc2)nc2sccn12
- TGI (UO-31 renal): 6.13 µM
- TGI (HCC-2998 colon): 2.73 µM
- TGI (DU-145 prostate): 3.21 µM
- TGI (SN12C renal): 3.2 µM
- TGI (UACC-62 melanoma): 3.22 µM
- TGI (HCT-116 colon): 3.05 µM
- TGI (NCI-H522 lung): 3.83 µM
- TGI (SK-MEL-2 melanoma): 3.33 µM
- TGI (HL-60(TB) leukemia): 5.8 µM
- TGI (EKVX NSCLC): 3.44 µM
- TGI (RXF 393 renal): 7.55 µM
- TGI (SK-MEL-28 melanoma): 3.74 µM
- TGI (OVCAR-3 ovarian): 2.89 µM
- TGI (CAKI-1 renal): 6.93 µM
- TGI (A498 renal): 3.21 µM
- TGI (OVCAR-4 ovarian): 2.97 µM
- TGI (U251 CNS): 2.95 µM
- TGI (RPMI-8226 leukemia): 28.3 µM
- TGI (T-47D breast): 3.58 µM
- TGI (M14 melanoma): 3.38 µM
- TGI (A549 NSCLC): 3.34 µM
- TGI (NCI-H460 lung): 4.03 µM
- TGI (SNB-75 CNS): 3.27 µM
- TGI (HOP-92 NSCLC): 3.52 µM
- TGI (KM12 colon): 1.88 µM
- TGI (NCI/ADR-RES ovarian): > 100 µM
- TGI (ACHN renal): 7.27 µM
- TGI (K-562 leukemia): 2.84 µM
- TGI (COLO 205 colon): 1.96 µM
- TGI (SK-OV-3 ovarian): 3.35 µM
- TGI (SF-295 CNS): 2.87 µM
- TGI (NCI-H23 lung): 3.46 µM
- TGI (MDA-MB-231 breast): 3.13 µM
- TGI (TK-10 renal): 3.22 µM
- TGI (MCF7 breast): 2.62 µM
- TGI (HCT-15 colon): 23.7 µM
- TGI (SNB-19 CNS): 2.74 µM
- TGI (MDA-MB-435): 2.87 µM
- TGI (UACC-257 melanoma): 3.65 µM
- TGI (PC-3 prostate): 2.93 µM
- TGI (SK-MEL-5 melanoma): 7.98 µM
- TGI (BT-549 breast): 3.44 µM
- TGI (SF-539 CNS): 3.34 µM
- TGI (IGROV1 ovarian): 36.4 µM
- TGI (OVCAR-5 ovarian): 3.11 µM
- TGI (HS 578T breast): 4.14 µM
- TGI (786-0 renal): 3.07 µM
- TGI (HT29 colon): 2.95 µM
